# Legend:
# [1] = tested on: intact mycelia of B. cinerea; assay: mycelial respiration (oxygen consumption of intact mycelia); assay type: cell-based, Botrytis cinerea; details: 25 °C; for R1 (mycelial oxygen uptake post addition of fungicide): R0 173.51; for inhibition at 50 µg/mL / inhibition at 100 µg/mL: Botrytis cinerea, read-out: IR (inhibition of respiration)
# Procedure: Mycelial plugs of B. cinerea from 3 days old colony margins were transferred to conical flasks containing 150 mL of PDA liquid medium for shake culture (25 °C, 150 r/min). After 5 days, mycelia were washed three times with 50 mM potassium phosphate buffer (pH 7.2) and resuspended in 0.1 M phosphate buffer (pH 7.2), containing 2% glucose to afford mycelial suspension at a concentration of 50 mg fresh weight of mycelia per milliliter. The mycelial suspension was treated with 50 and 100 μg/mL of L13 and famoxadone, respectively. All measurements were carried out at 25 ± 1 °C. The ratio of the mycelial oxygen consumption was tested by oxygraphy (DW1, Hansatech Instruments Ltd., England), and the inhibition of respiration was calculated using the following formula:IR = (R0 − R1)/R0 × 100(1)
# IR: inhibition of respiration (%); R0, R1: the ratio of mycelial oxygen uptake pre and post addition of fungicides (nmol O2/min/mg mycelia).
# B. cinerea = tested on: B. cinerea; design: method as in PMID 18331796; details: cited from earlier work
# mutagenesis test = assay: mutagenesis test
# Procedure: (§1) The acute oral and dermal toxicity test on Wistar rats, eye and skin irritation test on rabbits, and Ames mutagenicity test were commissioned by the Institute for the Control of Chemical Toxicity in Tianjin. The bone marrow cell micronucleus assay and testis chromosomal aberration test of mice were commissioned by Tianjin Center for Disease Control and Prevention. All the toxicological tests were carried out according to the Toxicological Test Methods for Pesticide Registration (GB 15670-1995).
# (§2) Based on the preliminary experiment, Horn’s method was used to determine the acute oral toxicity of L13. The dosage applied for rats was 464, 1000, 2150, and 4640 mg/kg·BW. For the acute dermal toxicity test, the dosage applied for rats was 2000 mg/kg·BW. For the eye and skin irritation test, rabbits with bodyweight from 2.5 to 3.0 kg were used, and 0.1 and […] of L13 was applied to the eyes and skin, respectively. For the Ames mutagenicity test, 0.05–1.0 mg per dish of L13 was applied, and fenaminosulf (50 μg/dish), 2-aminofluorene (20 μg/dish), and 1,8-dihydroxyanthraquinone (50 μg/dish) were used as the positive controls. For the mouse bone marrow cell micronucleus assay, the dosages applied were 165, 82.5, 41.3, and 8.3 mg/kg·BW, and cyclophosphamide (60 mg/kg·BW) was used as a positive control. […]
# [2] = tested on: B. cinerea resistant to iprodione (HM-3); assay: greenhouse pot test on tomato, iprodione-resistant strain HM-3; assay type: in vivo, Botrytis cinerea
# Procedure: (§3) The B. cinerea strains, which had resistance to carbendazim (HM-1), diethofencarb (HM-2), and iprodione (HM-3) for greenhouse pot studies, were provided by the Institute of Vegetables and Flowers, Chinese Academy of Agricultural Sciences (Beijing, China).
# (§4) The experiments were conducted in the greenhouse of the Institute of Vegetables and Flowers, Chinese Academy of Agricultural Sciences. The maximum and minimum temperatures of the greenhouse were 29 °C and 19 °C, respectively, and the average temperature was 24 °C. B. cinerea strains showing resistance to carbendazim, diethofencarb, and iprodione were cultivated on potato dextrose agar (PDA) plates for 4–5 d at room temperature. Tomato seeds (Ziyu) were sown in ceramic pots (300 mm in diameter) containing 0.6 kg of soil sterilized with formaldehyde (4–5 seeds for each pot). When plants were grown to the five-leaf stage, an aqueous solution of 25% L13 WP (at dilution multiples of 1000 and 2000 times) was sprayed preventatively on the plant surface. […] The severity of the disease was assessed according to a nine-grade classification at 7 d after inoculation, by which time the disease in the untreated control had fully developed.
# rabbits [3] = assay: eye irritation test; assay type: in vivo
# Procedure: as §1, §2
# [4] = tested on: B. cinerea resistant to diethofencarb (HM-2); assay: greenhouse pot test on tomato, diethofencarb-resistant strain HM-2; assay type: in vivo, Botrytis cinerea
# Procedure: as §3, §4
# Wistar rats = assay: acute oral toxicity; assay type: in vivo
# Procedure: as §1, §2
# [5] = tested on: B. cinerea resistant to carbendazim (HM-1); assay: greenhouse pot test on tomato, carbendazim-resistant strain HM-1; assay type: in vivo, Botrytis cinerea
# Procedure: as §3, §4
# [6] = tested on: intact mycelia of B. cinerea; design: method as in earlier work; details: cited from earlier work
# B. cinerea hyphae = assay: SEM and TEM of mycelial morphology and ultrastructure; assay type: cell-based, Botrytis cinerea; details: 3 days
# Procedure: B. cinerea mycelial tips (5 mm) from the margins of the actively growing colony on the PDA medium amended with 0, 50, and 100 μg/mL of L13 were cut down after being cultured for 3 days. Then the mycelial tips were treated with 4% glutaraldehyde at 4 °C, then rinsed with 0.1 M phosphate buffer (pH 7.3) and fixed with 1% w/v osmium tetraoxide solution. After being rinsed with 0.1 M phosphate buffer three times, the mycelium block was dehydrated using a series of acetone solutions in the order of concentration: 30%, 50%, 70%, 80%, 90%, and anhydrous acetone. The processes of drying at a critical point, mounting, and gold spraying were completed at last and examined in a scanning electron microscope (S-3400N, Hitachi, Nissei Sanyo, Tokyo, apan) with an accelerating voltage of 18–20 kV.
# The mycelial blocks were prepared according to the method given in Section 2.3. After dehydrating and embedding in Epon 112, thin sections were cut and double-stained with uranyl acetate and lead citrate. The grids were examined with a JEOL-1230 (JEOL, Tokyo, Japan) transmission electron microscope.
# B. cinerea on tomatoes = assay: field efficacy trials against tomato gray mold; assay type: in vivo, Botrytis cinerea; details: Yuncheng city; 225 g ai ha^−1; over 2 years
# Procedure: The field efficacy trials of L13 against tomato gray mold were conducted in two locations of Yuncheng, Shanxi Province, and Gaocheng, Hebei Province. The experiments were conducted according to the National Agriculture Industry Standard of “Pesticide-guidelines for the field efficacy trials (I)-Fungicides against gray mold of vegetables” [38]. Tomato Jinpeng No. 1 was used as the experimental cultivar. There were six treatments in each trial, and the area of each plot was 5 × 3 m with four replications (24 plots). When tomato plants were grown to the five-leaf stage, an aqueous solution of L13 50% WP at a rate of 450 and 225 g ai ha^−1 was sprayed onto the plants using a hydraulic knapsack electric sprayer (CD-16B, Chaoda Instrument Co., Ltd., Taizhou, China) with a single cone nozzle operating at a typical working pressure 0.3 MPa. Iprodione 50% WP, or iprodione 25% SC at a rate of 225 and 562.5 g ai ha^−1 were used as positive controls. Three applications were conducted at an interval of 7 d. The disease was assessed according to a nine-grade classification 7 d after the last application.
# rabbits [7] = assay: skin irritation test; assay type: in vivo
# Procedure: as §1, §2
# B. cinerea mycelia = assay: mycelial electrolyte leakage (conductivity of mycelia suspension); assay type: cell-based, Botrytis cinerea; details: 50 μg/mL; for conductivity of mycelia suspension compared with control mycelia: all treatment times 0-100 h
# Procedure: Mycelial discs (5 mm in diameter) of B. cinerea grown on PDA plates were cut from the colony’s margins and placed in PDA liquid medium with 200 r/min shaking for 3 days. The mycelia in the culture medium were collected and washed three times by sterile distilled water and subsequently, filtered and weighed. A stock solution of L13 and commercial fungicide procymidone as a positive control were diluted with sterile distilled water to 50 μg/mL, respectively. After adding 1.0 g of fresh mycelia into different solutions mentioned above, the conductivities of the solutions were measured using the DDS-11C model conductivity detector at 0, 1, 3, 5, 24, 28, 40, 48, 52, 64, 68, 72, 76, 88, 92, and 100 h after treatment. The experiment was repeated twice with three replicates per treatment.
# [8] = dilution multiple 1000, 187.5 g.ai ha^−1
smiles,measurement,setting,value
"C[C@@]1(c2ccc(Oc3ccccc3)cc2)OC(=O)N(Nc2ccccc2)C1=O (racemic) [Famoxadone, famoxadone, reference compound]",R1 (mycelial oxygen uptake post addition of fungicide),[1]; 50 μg/mL,115.99 nmol O2/g/min
same,R1 (mycelial oxygen uptake post addition of fungicide),[1]; 100 μg/mL,68.79 nmol O2/g/min
same,inhibition at 50 µg/mL,[1]; 50 μg/mL,33.2%
same,inhibition at 100 µg/mL,[1]; 100 μg/mL,60.4%
"O=C1CCCCC1S(=O)(=O)Nc1ccc(Cl)cc1C(F)(F)F (stereo not drawn) [L13, N-(2-trifluoromethyl-4-chlorphenyl)-2-oxocyclohexyl sulfonamide]",EC50 against B. cinerea,B. cinerea,2.12 µg/mL
same,Mutagenesis,mutagenesis test,Negative
same,Control Effect,[2]; [8],78.27%
same,Eye irritation,rabbits [3],No irritation
same,Control Effect,[4]; [8],92.61%
same,Acute oral LD50,Wistar rats; female,2150 mg/kg·BW
same,Acute oral LD50,Wistar rats; male,1470 mg/kg·BW
same,Control Effect,[5]; [8],81.36%
same,content of DNA and polysaccharide in intact mycelia,[6],reduce the content of the DNA and polysaccharide
same,TEM ultrastructure of hyphae,B. cinerea hyphae; PDA with 50 μg/mL,cell wall exhibited a decomposition trend
same,TEM ultrastructure of hyphae,B. cinerea hyphae; PDA with 100 μg/mL,cell wall decomposition
same,R1 (mycelial oxygen uptake post addition of fungicide),[1]; 50 μg/mL,169.93 nmol O2/g/min
same,R1 (mycelial oxygen uptake post addition of fungicide),[1]; 100 μg/mL,143.48 nmol O2/g/min
same,inhibition at 50 µg/mL,[1]; 50 μg/mL,2.15%
same,inhibition at 100 µg/mL,[1]; 100 μg/mL,17.4%
same,control effect against B. cinerea on tomatoes,B. cinerea on tomatoes,72–76%
same,Teratogenesis,teratogenesis test,Negative
same,Carcinogenesis,carcinogenesis test,Negative
same,Skin irritation,rabbits [7],No irritation
same,electrolyte leakage compared with positive control,B. cinerea mycelia,more significant electrolyte leakage from hyphae than procymidone
same,conductivity of mycelia suspension compared with control mycelia,B. cinerea mycelia,greatly increased
"COC(=O)Nc1nc2ccccc2[nH]1 [carbendazim, reference compound]",Control Effect,"[5]; dilution multiple 500, 750 g.ai ha^−1",29.00%
"CCOc1ccc(NC(=O)OC(C)C)cc1OCC [diethofencarb, reference compound]",Control Effect,"[4]; dilution multiple 1400, 267.9 g.ai ha^−1",76.36%
"CC(C)NC(=O)N1CC(=O)N(c2cc(Cl)cc(Cl)c2)C1=O [iprodione, reference compound]",Control Effect,"[2]; dilution multiple 1000, 375 g.ai ha^−1",2.36%
"CC12CC1(C)C(=O)N(c1cc(Cl)cc(Cl)c1)C2=O (stereo not drawn) [procymidone, reference compound]",EC50 against B. cinerea,B. cinerea,2.45 µg/mL
same,conductivity of mycelia suspension compared with control mycelia,B. cinerea mycelia,greatly increased
